Measurements: patent US20090004112A1, “METHODS FOR THE TREATMENT OF NEURODEGENERATIVE DISEASES USING NMDA RECEPTOR GLYCINE SITE ANTAGONISTS” (THE TRUSTEES OF COLUMBIA UNIVERSITY IN THE CITY OF NEW YORK, priority 2006, published 2009)

Columns and labels:
[1] = system: wild-type LRRK2 overexpressing cells; test: Process length in wild-type LRRK2 overexpressing primary cortical neurons; assay type: cell-based, rat; details: 10 μM
From the text: FIGS. 8A-8B. […] N=25 for each group. […] N=10 for each group.
Cell Culture and Transfection.

[2] = system: PD-associated LRRK2 mutant; test: Formation of LC3-GFP labeled aggregates in neurites / PD-associated LRRK2 pathology; assay type: cell-based
From the text: A method is disclosed for treating a neurodegenerative disease, for example, Parkinson's Disease associated with a mutant of leucine-rich repeat kinase-2 (LRRK2), with NMDA antagonists. The methods include assessing accumulation of LC3-GFP labeled aggregates. The methods may be carried out on primary neurons in vitro in a cell culture, or in vivo in an animal. In one embodiment, the cell is a post-mitotic neuron. In another embodiment, the post-mitotic neuron is a cortical neuron, a dopamine neuron, or a sympathetic neuron.
Mutations in LRRK2 underlie an autosomal dominant, inherited form of Parkinson's disease (PD) that mimics all of the clinical features of the common sporadic form of PD. The LRRK2 protein includes putative GTPase, protein kinase, WD40 repeat, and leucine rich repeat (LRR) domains of unknown function.

Row | Compound | process length in wild-type LRRK2 overexpressing cells [1] | PD-associated LRRK2 pathology [2] | formation of LC3-GFP labeled aggregates in neurites [2]
1 | NC1(C(=O)O)CCC1 [1-aminocyclobutane carboxylic acid] | do not alter process length | – | –
2 | O=c1c(-c2cccc(Oc3ccccc3)c2)c(O)[nH]c2cc(Cl)ccc12 [L-701,324, 7-chloro-2-hydroxy-3-[3-(phenoxy)phenyl]-1H-quinolin-4-one] | – | ameliorated | ameliorated
3 | O=C1CC(c2ccccc2)Oc2ccccc21 (stereo not shown) [flavanone] | do not alter process length | – | –
4 | N[C@@H](CCC(=O)N[C@@H](CS)C(=O)NCC(=O)O)C(=O)O [glutathione] | do not alter process length | – | –
5 | Oc1ccc(O)cc1 [hydroquinone] | do not alter process length | – | –
6 | Nc1ccccc1C(=O)CC(N)C(=O)O (stereo not shown) [kynurenine] | do not alter process length | – | –
